How the values were obtained:
Embryogenic calli = experiment: X-gluc staining of calli immediately after 53 hours co-culture; format: cell-based, Jatropha curcas; conditions: AS 200 μM, pCambia1305.1 bar
Description: The calli were immediately stained with X-gluc and photographed.
The calli were immediately stained with X-gluc.

[1] = tested on: Jatropha curcas somatic embryos / somatic embryogenic calli; conditions: TE7, AGL1 pST2eGFP
Method: Embryogenic cell lines, for example, JS4 cell line, which was derived from a zygotic embryo of an Indonesian Jatropha curcas collection, were subcultured every week by transferring about 3 g of the cell mass to 20 ml J20P medium. 3-5 days after subculture, the embryogenic calli cell mass was collected.
Co-culture plates were made by pouring about 30 ml JIM2H solid medium to each 90 mm Petri dish. Alternatively, 3-4 sheets of cellulose filter paper can be soaked with JIM2H liquid medium before placing into a 90 mm Petri dish. One sheet of 82 mm Hybond N membrane was over-laid to the medium-soaked cellulose filter paper or solid JIM2H medium. About 0.75 g embryogenic calli was mixed with 200 ul Agrobacterium cells on the membrane. After one hour incubation at room temperature, excess liquid medium containing the Agrobacterium cells was removed. The plates were capped, sealed with 3M tape and incubated at 24° C. with dim light for 2-3 days.
Fresh colonies of AGL2 or AGL3 harboring pCambia1305.1 were inoculated into 30 ml LB medium that had been supplemented with 25 mg/l rifampicin and 50 mg/l kanamycin. Cells were cultured at 28° C., 200-230 RPM until OD600 reached 0.8-2.0. […]
In about 3 weeks, the embryos were transferred to G35-2 medium with 10 mg/l hygromycin. […] Rooted plantlets were ready for planting in soil in 2-3 weeks. […]

[2] = tested on: Somatic embryogenic calli from 4 different cell lines; conditions: DPI at about 10 μM; AGL2(pCambia1305.1); LMP Bd2 embedding; two months selection; average of four cell lines
Method: The co-culture medium JIM2 was supplemented with either 1 μM diphenyl iodonium (DPI), 5 μM DPI or a mixture of antioxidants with a final concentration of 1 mM Na-thiosulfate, 8.8 mM L-cysteine and 1 mM dithiothreitol (DTT). Hygromycin resistant somatic embryos were scored after two months selection. The number of somatic embryos derived from co-culture with DPI-free JIM2 (CK) was set at 100 in each cell line and the relative number of somatic embryos in other co-culture conditions was calculated by dividing the actual number by that of CK.
Somatic embryogenic calli from 4 different cell lines were co-cultured with AGL2(pCambia1305.1) and selection was done by the LMP Bd2 embedding method. The co-culture medium JIM2 was supplemented with either 1 μM DPI, 5 μM DPI or a mixture of antioxidants with a final concentration of 1 mM Na-thiosulfate, 8.8 mM L-cysteine and 1 mM DTT. Hygromycin resistant somatic embryos were scored after two months selection. In transformation using each cell line, the number of somatic embryos derived from co-culture with DPI-free JIM2 (CK) was set at 100 and relative number of somatic embryos in other co-culture conditions was calculated by dividing the actual number by that of CK.

[3] = tested on: Soybean embryogenic suspension culture (derived Peking 18); conditions: 1 μM DPI in co-culture medium; pre-induced AGL1(pCambia1305.1); 2.5 day at 24° C.; 10 mg/l hygromycin selection; control about 40%
Method: Soybean embryogenic suspension culture (derived Peking 18) was co-cultured for 2.5 day at 24° C. with pre-induced AGL1(pCambia1305.1) on nylon membrane, which was placed on top of solid medium (1M with 20 mg/l 2,4-D and B5 vitamins) that was supplemented with 1 μM DPI or 1 mM Na-thiosulfate, 8.8 mM L-cysteine and 1 mM DTT. After selection with 10 mg/l hygromycin, the calli clumps were stained with X-gluc.

COc1cc(C(C)=O)cc(OC)c1O [AS, acetosyringone]
Effect of AS on transformation efficiency in AGL2 (Embryogenic calli): further boosted transformation efficiency

c1ccc2c(c1)[I+]c1ccccc1-2 [DPI, diphenylene iodonium]
Effect of DPI on explants ([1]; liquid medium SE): DPI caused no damage on
Improvement of transformation efficiency (relative number of hygromycin resistant somatic embryos vs DPI-free JIM2) [2]: more than 2 folds
calli clumps showing GUS staining [3]: more than 80%

NC[C@H]1O[C@H](O[C@H]2[C@H](O)[C@@H](O[C@H]3O[C@H](CO)[C@@H](O)[C@H](N)[C@H]3O)[C@H](N)C[C@@H]2N)[C@H](O)[C@@H](O)[C@@H]1O [Kan, kanamycin]
Kan selection concentration found OK ([1]; Kan 0, 25, 50 and 80 mg/l tested, SE on solid medium): 50-80 mg/l OK, heavy
